Experimental data from patent US10501516B2, “Peptide compound” (TAKEDA PHARMACEUTICAL COMPANY LIMITED, priority 2016, dated 2019).
Square brackets hold non-standard residues; d marks the D form. Side chains are listed from the residue outwards. Peptide text beside a SMILES is read from it. * marks the point of attachment. NMeY = CN[C@@H](Cc1ccc(O)cc1)C(=O)O; Palmitoyl = CCCCCCCCCCCCCCCC(=O)*; αMeF = C[C@](N)(Cc1ccccc1)C(=O)O; Iva = CC[C@](C)(N)C(=O)O; Aib = CC(C)(N)C(=O)O

Assays:
[1] = system: male C57BL/6J mouse; experiment: Evaluation of feeding suppressive action in mice; format: in vivo; settings: 30 nmol/kg s.c. once a day for 3 days; 3-days cumulative food consumption vs solvent control
Outline: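 Male C57BL/6J mice, 8-9 weeks, ad libitum fed, given compound (30 or 100 nmol/2 mL in 10% DMSO saline) s.c. at 2 mL/kg once daily for 3 days. Cumulative 3-day food consumption measured by weighing; suppression rate (%) calculated relative to vehicle controls.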

[2] = system: Male KKA^y mice; experiment: Repeated administration in KKA^y mice; format: in vivo, mouse; settings: for ALT / AST / TC / TG: plasma, mean ± SD
Description: Male KKA^y mice (10 weeks old) were divided into the groups based on the data of body weight, food intake, glycated hemoglobin (GHb), and plasma parameters. P41 was subcutaneously administered once a day for 4 weeks. Compounds were dissolved in 10% DMSO/saline. Body weight and food intake were monitored during the study. After the study, blood was collected and GHb and plasma parameters were measured. The animals were sacrificed, and the liver and the adipose tissues were dissected and weighed. Lipid was extracted from a piece of liver tissue and liver triglyceride (TG) content was measured.
Plasma glucose and TG were measured by Autoanalyzer 7180 (Hitachi High-Technologies Corporation, Japan). Blood GHb was measured with the automated GHb analyzers (HLC-723G8, Tosoh, Tokyo, Japan). Plasma insulin was measured with ELISA Assay kit (Shibayagi Co. Ltd., Japan). Liver TG content was measured as follows: a piece of tissue was homogenized in saline and lipid was extracted by the addition of hexane:isopropanol (3:2) solution. The lipid phase was collected, dried and then dissolved in isopropanol. The concentration of TG was measured by Triglyceride E-test (Wako Pure Chemical Industries) and TG content per g liver was calculated.

[3] = system: cynomolgus monkeys; experiment: Food intake and emesis study in cynomolgus monkeys; format: in vivo, cynomolgus monkey
Description: One male and one female cynomolgus monkeys (age: 4 years old, body weight: 3.9 kg in male, 2.7 kg in female) were used. The monkeys were housed in individual cages with a 12 hr:12 hr light-dark schedule at 22-27° C., and given 100 g of pellet diet (Oriental Yeast Co. Ltd) once daily. The diet was supplied after completion of the clinical observation at 8 hour post dose on the days of dosing. On other days during the experimental period, the diet was supplied each day after the completion of examinations and the remaining diet was withdrawn on the following morning. P41 was dissolved in 0.5 w/v % mannitol solution. The compound at 0.05 mg/kg was subcutaneously administered at day 1 and then at 0.15 mg/kg at day 4. Body weight was measured once during the pre-dosing period and on day 1, 4, 8, 11 and 15. Food intake was measured every day during the experimental period.

[4] = 10 nmol/kg s.c. once a day for 4 weeks
[5] = 30 nmol/kg s.c. once a day for 4 weeks
[6] = 100 nmol/kg s.c. once a day for 4 weeks
[7] = 10, 30 and 100 nmol/kg s.c. once a day for 4 weeks

## CCCCCCCCCCCCCCCC(=O)NCC(=O)NCC(=O)NCC(=O)NCC(=O)NCCCC[C@H](NC(=O)[C@H](CC(=O)O)NC(=O)[C@H](CO)NC(=O)[C@@H](NC(=O)[C@](C)(Cc1ccccc1)NC(=O)[C@@H](NC(=O)CNC(=O)[C@H](CCC(=O)O)NC(=O)C(C)(C)NC(=O)[C@H](Cc1ccc(O)cc1)NC)[C@@H](C)O)[C@@H](C)O)C(=O)N[C@@H](CO)C(=O)N[C@H](C(=O)NC(C)(C)C(=O)N[C@@H](CC(C)C)C(=O)N[C@@H](CCC(=O)O)C(=O)N[C@@H](CCCCN)C(=O)N[C@@H](CCC(N)=O)C(=O)N[C@@H](CCCNC(=N)N)C(=O)N[C@@H](CCC(N)=O)C(=O)N[C@@](C)(CC)C(=O)N[C@@H](CCC(=O)O)C(=O)N[C@@H](Cc1ccccc1)C(=O)N[C@H](C(=O)N[C@@H](CCCNC(=N)N)C(=O)N[C@@H](Cc1c[nH]cn1)C(=O)N[C@@H](CC(C)C)C(=O)N[C@@H](CC(C)C)C(=O)N[C@@H](CC(N)=O)C(=O)N[C@@H](CCCCN)C(=O)NC(C)(C)C(=O)N[C@H](C(=O)N[C@@H](CCCNC(=N)N)C(=O)N[C@@H](CCC(N)=O)C(=O)N[C@@H](CCCNC(=N)N)C(=O)N[C@@H](Cc1ccc(O)cc1)C(N)=O)[C@@H](C)O)C(C)C)[C@@H](C)CC [Example 41] (H-[NMeY][Aib]EGT[αMeF]TSDK([Gly-Gly-Gly-Gly-Palmitoyl])SI[Aib]LEKQRQ[Iva]EFVRHLLNK[Aib]TRQRY-NH2)
[1]
  Rate of feeding suppression (%): −52.1%
[2]; [4]
  decrease in body weight compared with vehicle group: 4.2%
  ALT: 31.3 ± 9.7 U/L
  AST: 53.4 ± 11.9 U/L
  TC: 139.3 ± 19.0 mg/dL
  TG: 357.1 ± 76.9 mg/dL
[2]; [5]
  decrease in body weight compared with vehicle group: 9.8%
  ALT: 24.9 ± 2.1 U/L
  AST: 48.9 ± 8.6 U/L
  TC: 155.9 ± 20.1 mg/dL
  TG: 210.1 ± 53.3 mg/dL
[2]; [6]
  decrease in body weight compared with vehicle group: 30.1%
  ALT: 21.7 ± 7.6 U/L
  AST: 52.6 ± 7.3 U/L
  TC: 131.4 ± 14.0 mg/dL
  TG: 138.1 ± 54.4 mg/dL
[2]; [7]
  GHb, PG and plasma insulin levels: dose-dependent and significant decrease
  liver tissue weight: Comparable reduction
[3]; 0.05 and 0.15 mg/kg (ca. 10 and 30 nmol/kg) s.c., one male and one female
  food consumption: almost completely abolished food consumption
[3]; 0.05 and 0.15 mg/kg s.c.
  duration of inhibitory effect of food consumption: ≥ 2 days
[3]; 0.05 and 0.15 mg/kg s.c., throughout the experimental period
  vomiting: did not induce vomiting
